Where “and” joins values, the source holds several entries; their conditions need not be identical. Equal values may be shown once. Each block holds one molecule with its values, some of them ahead of it.
Legend:
[1] = tested on: SNAP-tagged mGluR2 and mGluR3 constructs; assay: Surface expression measurements; format: cell-based, rat; conditions: construct; single measurements
Description: ImageJ was used to analyze fluorescence intensity of cell clusters. […] Fluorescence intensity values for each construct were normalized to wild-type values for comparison.

mGluR2-TMD = mGluR2-TMD (Rattus norvegicus, UniProt P31421); assay: SiMPull subunit counting in the presence of ligands; conditions: for % Dimerization: SNAP-mGluR2-TMD in presence of the ligand, single replicates per experiment day; for effect of ligand on dimerization (SiMPull): saturating concentration
Chain of mGluR2-TMD (P31421 558-821 limits assumed): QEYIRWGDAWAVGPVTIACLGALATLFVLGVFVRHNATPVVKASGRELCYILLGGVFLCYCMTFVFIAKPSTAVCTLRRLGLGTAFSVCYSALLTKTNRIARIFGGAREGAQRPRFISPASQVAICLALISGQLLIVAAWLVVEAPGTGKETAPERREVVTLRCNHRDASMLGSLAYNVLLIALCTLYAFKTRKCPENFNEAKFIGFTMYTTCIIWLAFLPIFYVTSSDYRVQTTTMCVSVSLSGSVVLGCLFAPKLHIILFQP

mGluR2-TMD-3xTM4 = assay: as above; parameters: species or system rat; conditions: for % Dimerization: SNAP-mGluR2-TMD-3xTM4 in presence of the ligand, single replicates per experiment day
mGluR2-TMD-I779A = assay: as above; parameters: species or system rat; conditions: for % Dimerization: SNAP-mGluR2-TMD-I779A in presence of the ligand, single replicates per experiment day
mGluR2-TMD-3xTM4-I779A = assay: as above; parameters: species or system rat; conditions: for % Dimerization: SNAP-mGluR2-TMD-3xTM4-I779A in presence of the ligand, single replicates per experiment day; for effect of ligand on dimerization (SiMPull): saturating concentration
mGluR2-C121A = molecular target: T1, mGluR2-C121A (Rattus norvegicus, UniProt P31421, C121A); assay: as above; conditions: SNAP-mGluR2-C121A in presence of the ligand; single replicates per experiment day
T1 construct: expressed in transfected cells; host or cells: HEK 293 T (detergent lysate, pulled down by anti-HA antibody)
T1 sequence (P31421 19-872 C121A): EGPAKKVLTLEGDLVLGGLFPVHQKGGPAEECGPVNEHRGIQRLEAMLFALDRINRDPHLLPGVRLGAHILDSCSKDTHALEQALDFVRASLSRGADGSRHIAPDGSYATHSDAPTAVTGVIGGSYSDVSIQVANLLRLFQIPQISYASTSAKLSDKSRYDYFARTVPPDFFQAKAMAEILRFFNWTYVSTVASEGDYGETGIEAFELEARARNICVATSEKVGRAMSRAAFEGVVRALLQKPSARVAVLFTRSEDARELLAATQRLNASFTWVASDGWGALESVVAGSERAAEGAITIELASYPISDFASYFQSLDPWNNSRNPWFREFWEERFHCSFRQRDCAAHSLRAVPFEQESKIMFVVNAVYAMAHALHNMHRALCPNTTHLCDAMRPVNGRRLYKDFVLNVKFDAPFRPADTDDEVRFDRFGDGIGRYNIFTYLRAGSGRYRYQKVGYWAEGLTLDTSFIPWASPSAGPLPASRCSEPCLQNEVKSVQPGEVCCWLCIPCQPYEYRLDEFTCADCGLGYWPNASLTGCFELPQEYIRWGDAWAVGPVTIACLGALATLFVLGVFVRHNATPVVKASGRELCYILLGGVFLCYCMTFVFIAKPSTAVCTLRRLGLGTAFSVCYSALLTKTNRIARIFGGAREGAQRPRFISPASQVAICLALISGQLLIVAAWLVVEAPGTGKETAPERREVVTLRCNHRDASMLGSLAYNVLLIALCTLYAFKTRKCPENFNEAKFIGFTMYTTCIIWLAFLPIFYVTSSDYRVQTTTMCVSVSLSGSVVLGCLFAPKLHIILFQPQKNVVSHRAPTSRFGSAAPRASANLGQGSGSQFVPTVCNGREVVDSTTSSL

mGluR2-C121A-3xTM4 = molecular target: T2, mGluR2-C121A-3xTM4 (Rattus norvegicus, UniProt P31421, A677S/A681F/A685G/C121A); assay: as above; conditions: for % Dimerization: SNAP-mGluR2-C121A-3xTM4 in presence of the ligand, single replicates per experiment day
T2 construct: expressed in transfected cells; host or cells: HEK 293 T (detergent lysate, pulled down by anti-HA antibody)
T2 sequence (P31421 19-872 C121A/A677S/A681F/A685G): as the sequence (P31421 19-872 C121A) above, with A659S, A663F, A667G counted along it

mGluR2-C121A-I779A = molecular target: T3, mGluR2-C121A-I779A (Rattus norvegicus, UniProt P31421, C121A/I779A); assay: as above; conditions: for % Dimerization: SNAP-mGluR2-C121A-I779A in presence of the ligand, single replicates per experiment day
T3 construct: expressed in transfected cells; host or cells: HEK 293 T (detergent lysate, pulled down by anti-HA antibody)
T3 sequence (P31421 19-872 C121A/I779A): as the sequence (P31421 19-872 C121A) above, with I761A counted along it

mGluR2-C121A-3xTM4-I779A = molecular target: T4, mGluR2-C121A-3xTM4-I779A (Rattus norvegicus, UniProt P31421, A677S/A681F/A685G/C121A/I779A); assay: as above; conditions: SNAP-mGluR2-C121A-3xTM4-I779A in presence of the ligand; single replicates per experiment day
T4 construct: expressed in transfected cells; host or cells: HEK 293 T (detergent lysate, pulled down by anti-HA antibody)
T4 sequence (P31421 19-872 C121A/A677S/A681F/A685G/I779A): as the sequence (P31421 19-872 C121A) above, with A659S, A663F, A667G, I761A counted along it

group II mGluR = tested on: group II mGluR; parameters: method as in Hemstapat et al., 2007; conditions: ref Hemstapat et al., 2007; cited from earlier work
mGluR2 [2] = molecular target: mGluR2 (Rattus norvegicus, UniProt P31421, INS660ASEIGTGFPFDPHYVEVLGERMHYVDVGPRDGTPVLFLHGNPTSSYVWRNIIPHVAPTHRCIAPDLIGMGKSDKPDLGYFFDDHVRFMDAFIEALGLEEVVLVIHDWGSALGFHWAKRNPERVKGIAFMEFIRPIPTWDEWPEFARETFQAFRTTDVGRKLIIDQNVFIEGTLPMGVVRPLTEVEMDHYREPFLNPVDREPLWRFPNELPIAGEPANIVALVEEYMDWLHQSPVPKLLFWGTPGVLIPPAEAARLAKSLPNCKAVDIGPGLNLLQEDNPDLIGSEIARWLSTLEISGLE); assay: Inter-TMD FRET sensor (HaloTag in ICL2), live cells
Chain of UniProt P31421 (P31421 with tags, fused parts or gaps with the stated changes): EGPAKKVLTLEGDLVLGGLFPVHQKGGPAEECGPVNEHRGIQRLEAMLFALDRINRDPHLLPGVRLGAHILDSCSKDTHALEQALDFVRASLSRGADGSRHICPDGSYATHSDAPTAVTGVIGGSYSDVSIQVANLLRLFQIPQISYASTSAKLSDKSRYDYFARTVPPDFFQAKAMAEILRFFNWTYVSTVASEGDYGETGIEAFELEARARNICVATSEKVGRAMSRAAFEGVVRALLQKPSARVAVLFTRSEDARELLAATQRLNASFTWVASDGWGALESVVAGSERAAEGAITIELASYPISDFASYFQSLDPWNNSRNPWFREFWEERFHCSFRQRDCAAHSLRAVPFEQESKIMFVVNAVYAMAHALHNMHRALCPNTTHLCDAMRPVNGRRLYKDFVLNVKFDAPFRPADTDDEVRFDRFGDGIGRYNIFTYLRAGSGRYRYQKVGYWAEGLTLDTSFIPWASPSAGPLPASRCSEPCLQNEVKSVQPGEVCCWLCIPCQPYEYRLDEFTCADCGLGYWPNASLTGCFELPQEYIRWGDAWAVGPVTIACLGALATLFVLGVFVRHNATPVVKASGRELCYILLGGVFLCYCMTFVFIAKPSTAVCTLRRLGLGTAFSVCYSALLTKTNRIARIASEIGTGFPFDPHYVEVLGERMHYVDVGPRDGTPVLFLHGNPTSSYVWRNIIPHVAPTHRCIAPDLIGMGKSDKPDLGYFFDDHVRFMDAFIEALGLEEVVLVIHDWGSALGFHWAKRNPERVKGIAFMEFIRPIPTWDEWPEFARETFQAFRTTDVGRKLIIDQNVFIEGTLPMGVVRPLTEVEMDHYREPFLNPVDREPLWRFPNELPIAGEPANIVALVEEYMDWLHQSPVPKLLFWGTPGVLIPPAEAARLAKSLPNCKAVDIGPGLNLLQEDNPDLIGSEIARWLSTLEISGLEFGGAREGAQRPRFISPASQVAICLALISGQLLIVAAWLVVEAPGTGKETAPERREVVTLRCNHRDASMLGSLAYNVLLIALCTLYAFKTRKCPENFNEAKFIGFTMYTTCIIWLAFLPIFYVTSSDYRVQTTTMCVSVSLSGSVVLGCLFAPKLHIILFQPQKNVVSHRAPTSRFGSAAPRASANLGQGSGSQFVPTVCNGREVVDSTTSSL

mGluR3 [3] = molecular target: mGluR3 (Rattus norvegicus, UniProt P31422, INS669ASEIGTGFPFDPHYVEVLGERMHYVDVGPRDGTPVLFLHGNPTSSYVWRNIIPHVAPTHRCIAPDLIGMGKSDKPDLGYFFDDHVRFMDAFIEALGLEEVVLVIHDWGSALGFHWAKRNPERVKGIAFMEFIRPIPTWDEWPEFARETFQAFRTTDVGRKLIIDQNVFIEGTLPMGVVRPLTEVEMDHYREPFLNPVDREPLWRFPNELPIAGEPANIVALVEEYMDWLHQSPVPKLLFWGTPGVLIPPAEAARLAKSLPNCKAVDIGPGLNLLQEDNPDLIGSEIARWLSTLEISGLE); assay: as above
Chain of UniProt P31422 (P31422 with tags, fused parts or gaps with the stated changes): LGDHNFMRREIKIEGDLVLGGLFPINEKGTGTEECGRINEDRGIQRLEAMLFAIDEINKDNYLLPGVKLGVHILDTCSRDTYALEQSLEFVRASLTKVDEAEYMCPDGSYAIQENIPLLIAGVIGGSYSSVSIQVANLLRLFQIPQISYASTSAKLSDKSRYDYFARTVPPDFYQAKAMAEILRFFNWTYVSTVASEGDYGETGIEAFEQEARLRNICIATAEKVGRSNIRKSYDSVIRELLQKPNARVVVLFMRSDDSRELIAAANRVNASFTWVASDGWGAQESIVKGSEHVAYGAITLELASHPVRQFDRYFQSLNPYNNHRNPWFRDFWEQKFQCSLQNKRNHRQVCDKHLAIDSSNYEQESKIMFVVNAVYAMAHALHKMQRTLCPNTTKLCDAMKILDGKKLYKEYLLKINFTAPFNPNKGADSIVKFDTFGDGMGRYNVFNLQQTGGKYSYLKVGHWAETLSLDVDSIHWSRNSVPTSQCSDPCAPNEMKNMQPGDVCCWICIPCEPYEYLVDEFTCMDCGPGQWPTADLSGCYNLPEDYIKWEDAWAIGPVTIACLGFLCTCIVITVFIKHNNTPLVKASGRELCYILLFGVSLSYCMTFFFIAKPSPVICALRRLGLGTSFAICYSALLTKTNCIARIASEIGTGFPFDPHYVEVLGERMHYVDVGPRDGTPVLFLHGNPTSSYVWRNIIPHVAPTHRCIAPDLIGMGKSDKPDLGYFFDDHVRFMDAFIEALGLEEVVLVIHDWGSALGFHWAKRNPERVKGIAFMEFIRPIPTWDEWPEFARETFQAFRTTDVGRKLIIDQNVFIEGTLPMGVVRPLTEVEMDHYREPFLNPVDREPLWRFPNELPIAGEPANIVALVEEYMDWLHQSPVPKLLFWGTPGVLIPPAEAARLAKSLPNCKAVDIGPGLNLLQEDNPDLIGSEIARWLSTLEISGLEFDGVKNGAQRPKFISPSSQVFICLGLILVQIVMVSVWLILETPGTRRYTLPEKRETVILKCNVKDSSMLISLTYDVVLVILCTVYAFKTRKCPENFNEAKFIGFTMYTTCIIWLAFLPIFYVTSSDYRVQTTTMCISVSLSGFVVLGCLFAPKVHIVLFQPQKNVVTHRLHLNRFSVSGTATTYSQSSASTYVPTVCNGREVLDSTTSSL

mGluR2 [4] = molecular target: mGluR2 (Rattus norvegicus, UniProt P31421); assay: Calcium imaging (G protein chimera, GCaMP6f) in HEK 293 T cells
Chain of mGluR2 (Rattus norvegicus, UniProt P31421) (P31421 19-872): as the sequence (P31421 19-872 C121A) above, with A103C counted along it

mGluR3 [5] = molecular target: mGluR3 (Rattus norvegicus, UniProt P31422); assay: as above
Chain of mGluR3 (Rattus norvegicus, UniProt P31422) (P31422 23-879): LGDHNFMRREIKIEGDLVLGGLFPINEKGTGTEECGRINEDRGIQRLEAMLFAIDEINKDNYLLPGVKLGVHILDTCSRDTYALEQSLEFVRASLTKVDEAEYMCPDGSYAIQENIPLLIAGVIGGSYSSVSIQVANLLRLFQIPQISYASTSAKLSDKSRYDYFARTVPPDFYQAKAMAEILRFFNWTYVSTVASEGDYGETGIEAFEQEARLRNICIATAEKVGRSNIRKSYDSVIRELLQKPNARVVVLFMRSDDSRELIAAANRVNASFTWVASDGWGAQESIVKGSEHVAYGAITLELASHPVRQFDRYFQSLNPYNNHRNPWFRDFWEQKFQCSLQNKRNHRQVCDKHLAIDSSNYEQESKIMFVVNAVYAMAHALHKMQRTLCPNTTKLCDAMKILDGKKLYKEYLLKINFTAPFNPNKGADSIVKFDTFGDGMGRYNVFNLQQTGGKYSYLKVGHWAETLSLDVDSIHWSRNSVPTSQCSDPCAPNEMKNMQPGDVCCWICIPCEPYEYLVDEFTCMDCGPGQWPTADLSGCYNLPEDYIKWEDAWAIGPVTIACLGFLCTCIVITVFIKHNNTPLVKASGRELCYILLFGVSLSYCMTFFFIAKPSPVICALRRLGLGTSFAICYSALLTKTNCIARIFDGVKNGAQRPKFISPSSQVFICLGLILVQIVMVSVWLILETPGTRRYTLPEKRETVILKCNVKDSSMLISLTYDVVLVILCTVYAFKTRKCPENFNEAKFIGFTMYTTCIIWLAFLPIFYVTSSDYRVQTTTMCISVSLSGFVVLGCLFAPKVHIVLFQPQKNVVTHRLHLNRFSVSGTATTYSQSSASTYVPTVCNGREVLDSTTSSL

mGluR2-I779A = molecular target: T5, mGluR2-I779A (Rattus norvegicus, UniProt P31421, I779A); assay: Calcium imaging in HEK 293 T cells; format: cell-based; conditions: for Calcium response amplitude: mGluR2-I779A
T5 construct: we performed calcium imaging experiments with mutations in the full-length mGluR2 background; expressed in transfected cells; host or cells: HEK 293 T
T5 sequence (P31421 19-872 I779A): as the sequence (P31421 19-872 C121A) above, with A103C, I761A counted along it
Method: Approximately 30 ROIs were analyzed per movie.

mGluR2-3xTM4 = mGluR2-3xTM4 (Rattus norvegicus, UniProt P31421, A677S/A681F/A685G); assay: Calcium imaging (G protein chimera, GCaMP6f) in HEK 293 T cells; conditions: for Calcium response amplitude: normalized to 1 mM glutamate, replicates
Chain of mGluR2-3xTM4 (P31421 19-872 A677S/A681F/A685G): as the sequence (P31421 19-872 C121A) above, with A103C, A659S, A663F, A667G counted along it
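For Basal FRET Response (%) in this document: receptor HaloTag labeled with JF549 donor and JF646 acceptor (1:3), FRET taken as acceptor over summed donor plus acceptor fluorescence intensity, imaged at room temperature.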

Molecule: SNAP-mGluR2-P778A
Surface Expression [1]: 0.58 and 0.76 and 0.68 and 0.87 and 0.59 and 1.10 and 0.91

effect of ligand on dimerization (SiMPull) (mGluR2-TMD): no sensitivity
effect of ligand on dimerization (SiMPull) (mGluR2-C121A-I779A; saturating concentration): significantly increases dimerization
block of glutamate-induced FRET responses (mGluR2 [2]; MNI 137 10 μM): 32.0 ± 4.5%
Maximum % Inhibition (mGluR2 [2]; mGluR2, Experiment: FRET): 29.8% and 42.4% and 23.8%
block of glutamate-induced FRET responses (mGluR3 [3]; MNI 137 10 μM): 42.9 ± 7.4%
block of glutamate-induced FRET responses (mGluR3 [3]; MNI 137 50 μM, n = 3): 44.9 ± 8.3%
block of functional (calcium) glutamate response (mGluR2 [4]; MNI 137 10 μM): full block of functional responses
Maximum % Inhibition (mGluR2 [4]; mGluR2, Experiment: Function): 100%
block of functional (calcium) glutamate response (mGluR3 [5]; MNI 137 10 μM): full block of functional responses
Maximum % Inhibition (mGluR3 [5]; mGluR3, Experiment: Function): 100%
Molecule: MNI 137
% Dimerization (mGluR2-TMD): 80.57% and 69.39% and 68.4% and 70.29% and 73.87% and 66.8% and 70.292% and 73.871% and 80.566% and 69.3893%
% Dimerization (mGluR2-TMD-3xTM4): 39.03% and 46.76% and 55.63% and 64.38% and 47.94% and 59.01%
% Dimerization (mGluR2-TMD-I779A): 60.52% and 74.21% and 73.33% and 77.72% and 88.90% and 81.43%
effect of ligand on dimerization (SiMPull) (mGluR2-TMD-I779A; saturating concentration): clear increase
% Dimerization (mGluR2-TMD-3xTM4-I779A): 46.88% and 52.99% and 50.80% and 55.60% and 41.02% and 44.69%
effect of ligand on dimerization (SiMPull) (mGluR2-TMD-3xTM4-I779A): prevented any PAM- or NAM-induced dimerization shifts
% Dimerization (mGluR2-C121A): 71.52% and 91.33% and 86.77% and 100.30% and 93.63% and 83.88%
% Dimerization (mGluR2-C121A-3xTM4): 70.00% and 81.03% and 62.91% and 67.92% and 62.85% and 68.46%
% Dimerization (mGluR2-C121A-I779A): 83.51% and 83.55% and 76.24% and 73.81% and 83.57% and 74.66%
% Dimerization (mGluR2-C121A-3xTM4-I779A): 49.83% and 50.71% and 40.36% and 45.67% and 37.52% and 54.71%
IC50 (group II mGluR): ~10 nM
Basal FRET Response (%) (mGluR3 [3]; mGluR3-Halo-ICL2, absence of glutamate, individual measurements): 13.3% and 15.2% and 5% and 5.6% and 0% and 19.5% and 7.8% and 52%

Calcium response amplitude (mGluR2-I779A; LY487379 100 nM): 0.00
Calcium response amplitude (mGluR2-I779A; LY487379 3 uM): 0.21 and 0.14
Calcium response amplitude (mGluR2-I779A; LY487379 10 uM): 0.34 and 0.27
Calcium response amplitude (mGluR2-I779A; LY487379 100 uM): 0.49 and 0.44
shift of LY48 EC50 compared to mGluR2 (mGluR2-I779A; calcium imaging, rightward): 12 fold
EC50 (mGluR2-I779A; read-out: LY48 EC50, calcium imaging): 5460 ± 10 nM
EC50 (mGluR2 [4]): 450 ± 100 nM
Calcium response amplitude (mGluR2 [4]; LY487379 1 nM, mGluR2): 0.00
Calcium response amplitude (mGluR2 [4]; LY487379 1 nM, normalized to 1 mM glutamate, replicates): 0.00
Calcium response amplitude (mGluR2 [4]; LY487379 10 nM, mGluR2): 0.00
Calcium response amplitude (mGluR2 [4]; LY487379 10 nM, normalized to 1 mM glutamate, replicates): 0.00
Calcium response amplitude (mGluR2 [4]; LY487379 100 nM, normalized to 1 mM glutamate, replicates): 0.09 and 0.00 and 0.07 and 0.33
Calcium response amplitude (mGluR2 [4]; LY487379 3 uM, mGluR2): 0.70 and 0.58 and 0.72
Calcium response amplitude (mGluR2 [4]; LY487379 3 uM, normalized to 1 mM glutamate, replicates): 0.70 and 0.58 and 0.72
Calcium response amplitude (mGluR2 [4]; LY487379 100 uM, mGluR2): 0.76 and 0.82 and 0.73 and 0.74
Calcium response amplitude (mGluR2 [4]; LY487379 100 uM, normalized to 1 mM glutamate, replicates): 0.76 and 0.82 and 0.73 and 0.74
EC50 (mGluR2-3xTM4): 270 ± 60 nM
Calcium response amplitude (mGluR2-3xTM4; LY487379 1 nM): 0.00
Calcium response amplitude (mGluR2-3xTM4; LY487379 10 nM): 0.14 and 0.16 and 0.09 and 0.00
Calcium response amplitude (mGluR2-3xTM4; LY487379 100 nM): 0.27 and 0.19 and 0.25
Calcium response amplitude (mGluR2-3xTM4; LY487379 1 uM): 0.80 and 0.82 (2×) and 0.66
Calcium response amplitude (mGluR2-3xTM4; LY487379 3 uM): 0.86 and 0.89
Calcium response amplitude (mGluR2-3xTM4; LY487379 10 uM): 0.94 and 0.93 and 0.86
Calcium response amplitude (mGluR2-3xTM4; LY487379 100 uM): 0.97 and 0.91 and 0.99
Molecule: COc1ccccc1Oc1ccc(N(Cc2cccnc2)S(=O)(=O)CC(F)(F)F)cc1 [LY487379, N-(4-(2-methoxyphenoxy)phenyl)-N-(2,2,2-trifluoroethylsulfonyl)pyrid-3-ylmethylamine]
Calcium response amplitude (mGluR2 [4]; LY487379 1 uM, mGluR2): 0.53 and 0.49 and 0.68 and 0.50 and 0.51 and 0.46
Calcium response amplitude (mGluR2 [4]; LY487379 1 uM, normalized to 1 mM glutamate, replicates): 0.53 and 0.49 and 0.68 and 0.50 and 0.51 and 0.46
Calcium response amplitude (mGluR2 [4]; LY487379 10 uM, mGluR2): 0.61 and 0.56 and 0.77 and 0.92 and 0.74 and 0.69
Calcium response amplitude (mGluR2 [4]; LY487379 10 uM, normalized to 1 mM glutamate, replicates): 0.61 and 0.56 and 0.77 and 0.92 and 0.74 and 0.69

effect of ligand on dimerization (SiMPull) (mGluR2-TMD): no sensitivity
effect of ligand on dimerization (SiMPull) (mGluR2-C121A-3xTM4; saturating concentration): significantly increases dimerization
Molecule: Cc1c(C(N)=O)nc2n1C[C@@H](COc1ccc(C(C)(C)C)cc1)O2 [TASP]
% Dimerization (mGluR2-TMD): 70.24% and 67.71% and 72.49% and 72.50% and 70.98% and 74.03%
% Dimerization (mGluR2-TMD-3xTM4): 69.61% and 70.23% and 79.80% and 76.57% and 71.76% and 76.09%
effect of ligand on dimerization (SiMPull) (mGluR2-TMD-3xTM4; saturating concentration): clear increase in dimerization
% Dimerization (mGluR2-TMD-I779A): 52.39% and 61.74% and 61.54% and 62.46% and 33.04% and 41.52%
% Dimerization (mGluR2-TMD-3xTM4-I779A): 47.45% and 39.66% and 50.29% and 36.75% and 47.53% and 38.72%
effect of ligand on dimerization (SiMPull) (mGluR2-TMD-3xTM4-I779A): prevented any PAM- or NAM-induced dimerization shifts
% Dimerization (mGluR2-C121A): 76.12% and 87.00% and 99.52% and 87.93% and 80.12% and 79.00%
% Dimerization (mGluR2-C121A-3xTM4): 78.37% and 85.60% and 87.01% and 85.50% and 86.03% and 88.59%
% Dimerization (mGluR2-C121A-I779A): 59.23% and 63.47% and 55.82% and 58.53% and 66.92% and 63.85%
% Dimerization (mGluR2-C121A-3xTM4-I779A): 50.00% and 40.35% and 44.84% and 41.46% and 44.90% and 44.88%
